# Laboratory results reported in PubChem BioAssay AID1259332 (Broad Institute, 2017).
# Values joined by “and” are separate entries in the source; they are usually repeats but may differ in a detail not shown here. Equal entries are not always repeated. Active and inactive are the calls of the source. How the calls were made is not given here. Starred links: 1 amine or outer side, 2 acyl side, 3 side chain; linkers in the order of their positions; H or OH if unused. Positions of bridges follow the written chain, without caps; N, C: chain ends. Non-standard residues stand in square brackets, D forms with d. Residues, ends and D or L forms follow the SMILES beside them. Chains are numbered I, II in the order given. Actinocin(9to1) = Cc1c2oc3c(C)ccc(C(=O)[*:1])c3nc-2c(C(=O)[*:2])c(N)c1=O; NMeV = CN[CH](C(=O)O)C(C)C; Sar = CNCC(=O)O
# Tested on: B cell line, CD40 signaling inhibition reporter
# Test: CD40 pathway inhibition in B cells – B cell lineage, dose response (AID 1259332);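 further: cells stimulated with CD40 ligand tCD40L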
row,Structure (SMILES),AC50
1,COc1ccc2c3c([nH]c2c1)[C@H](CO)N(C(=O)Nc1cccc(F)c1)CC31CCN(S(=O)(=O)c2cccc(C)c2)CC1,> 20 µM (inactive)
2,NC(c1ccccc1)c1csc(NC(=O)Nc2cccc(C(F)(F)F)c2)n1 (stereo not given),6.03 µM
3,O=C(C1CCCC1)N1CC(=O)N2[C@@H](CO)[C@@H](c3ccc(C#CCc4ccccc4)cc3)[C@@H]2C1,1.95 µM
4,Cc1csc(NC(=O)c2ccc(N3CCCC3=O)cc2)n1,4.3 µM
5,CCC(=O)O[C@]1(C(=O)CCl)[C@@H](C)C[C@H]2[C@@H]3CCC4=CC(=O)C=C[C@]4(C)[C@@]3(F)[C@@H](O)C[C@@]21C,> 20 µM (inactive)
6,COC(=O)c1ccccc1-c1c2ccc(=N)cc-2oc2cc(N)ccc12,10.9 µM
7,O=C(COC(=O)c1ccccc1)c1ccc2c(c1)OCCO2,0.926 µM
8,C[C@@H]1CN([C@@H](C)CO)C(=O)c2ccccc2-c2ccccc2CO[C@@H]1CN(C)Cc1ccc(Oc2ccccc2)cc1,> 20 µM (inactive)
9,O=C1NC2C(=CC(O)C(O)C2O)c2cc3c(c(O)c21)OCO3 (stereo not given),0.0711 µM
10,Nc1nc(=O)c2ccccc2s1,8.69 µM
11,O=C(c1ccc(Nc2nccc(-c3cc4ccccc4s3)n2)cc1)N1CCC(N2CCCC2)CC1,1.07 µM and 0.541 µM
12,C[C@H](CO)N1C[C@H](C)[C@H](CN(C)S(=O)(=O)c2ccc([N+](=O)[O-])cc2)OCc2ccccc2-c2c(n(C)c3ccccc23)C1=O,9.57 µM
13,O=C(Nc1ccccn1)c1ccc(-c2ccccc2)cc1,2.35 µM
14,CCC(C)(O)C(=O)OC1C(=O)OC2CC3C(C)=CC(=O)C(O)C3(C)C3C4(O)OCC23C1C(C)C4O (stereo not given),0.0299 µM
15,CC1=C(C#N)c2nc(N)c(C#N)c(C)c2/C1=C\c1ccccc1,4.41 µM
16,COc1ccc(C=Cc2ccc3ccccc3n2)c(OC)c1,11.3 µM
17,COc1ccc(C[C@H]2NC[C@H](O)[C@H]2OC(C)=O)cc1,0.0235 µM
18,Fc1ccccc1CNCCC(Cc1ccccc1)c1ccc2c(c1)OCO2 (stereo not given),5.98 µM
19,Clc1ccc(C(Cn2ccnc2)OCc2ccsc2Cl)c(Cl)c1 (stereo not given),6.04 µM
20,C=C1C(=O)C23C(O)C1CCC2C12CCCC(C)(COC(C)=O)C1C(O)C3(O)OC2 (stereo not given),0.567 µM
21,COc1ccc(S(=O)(=O)Nc2ccc3c(c2)C(=O)N([C@@H](C)CO)C[C@H](C)[C@@H](CN(C)Cc2ccc(C(F)(F)F)cc2)OCCCC[C@@H](C)O3)cc1,7.3 µM
22,CS(=O)(=O)c1ccc(C(=O)OCC(=O)NC(=O)C2COc3ccccc3O2)cc1[N+](=O)[O-] (stereo not given),10.2 µM

row,Structure (SMILES),AC50
1,CC[N+]1(C)CCC(O)(c2ccc(OC)cc2)C(C(=O)c2ccc(OC)cc2)C1 (stereo not given),3.75 µM
2,CC(C)(C)CC(C)(C)c1ccc(OCCOCC[N+](C)(C)Cc2ccccc2)cc1,1.62 µM
3,Cc1c2oc3c(C)ccc(C(=O)OC(C)C4NC(=O)C(C(C)C)N(C)C(=O)CN(C)C(=O)C5CCCN5C(=O)C(C(C)C)NC4=O)c3nc-2c(C(=O)OC(C)C2NC(=O)C(C(C)C)N(C)C(=O)CN(C)C(=O)C3CCCN3C(=O)C(C(C)C)NC2=O)c(N)c1=O (stereo not given) (I: cyclo([Sar][NMeV]TVP) / II: cyclo([Sar][NMeV]TVP); linker I:3-II:3 via Actinocin(9to1); configuration not given here),0.0309 µM
4,COc1cccc(S(=O)(=O)N(C)C[C@@H]2OCc3ccccc3-c3c(n(C)c4ccccc34)C(=O)N([C@H](C)CO)C[C@H]2C)c1,> 20 µM (inactive)
5,Cc1noc(C)c1S(=O)(=O)N(C)C[C@@H]1OCc2ccccc2-c2c(n(C)c3ccccc23)C(=O)N([C@@H](C)CO)C[C@@H]1C,11.3 µM
6,O=C(OC1CCOC1=O)c1ccccc1C(=O)c1ccc(Cl)c([N+](=O)[O-])c1 (stereo not given),> 20 µM (inactive)
7,c1ccn2cc(-c3ccc4c(c3)OCCO4)nc2c1,10.2 µM
8,CC(C)(C)CC(C)(C)c1ccc(O)c(Cc2ccc(Cl)cc2Cl)c1,7.11 µM
9,N#C[C@H]1[C@H](c2ccc(C#Cc3ccccc3F)cc2)[C@@H](CO)N1C(=O)C1CC1,> 20 µM (inactive)
10,CC(OC(=O)c1cc(Br)ccc1O)C(=O)Nc1ccc(S(=O)(=O)N2CCCC2)cc1 (stereo not given),11 µM
11,CC1=CC2OC3CC4OC(=O)C=CC=CC(=O)OCCC(C)C(O)C(=O)OCC2(CC1O)C4(C)C31CO1 (stereo not given),0.0067 µM
12,CC(=O)NC12CC3CC(C1)CC(C(=O)OCC(=O)c1ccc4c(c1)OCCO4)(C3)C2,6.31 µM
13,C[C@@H]1CN([C@H](C)CO)C(=O)c2c(c3ccccc3n2C)-c2ccccc2CO[C@@H]1CN(C)C(=O)c1cc(Cl)cc(Cl)c1,8.65 µM
14,O=C(Nc1nnc(C2CC2)s1)C1CC(=O)N(c2ccc3c(c2)OCCO3)C1 (stereo not given),> 20 µM (inactive)
15,CC(C)=CCc1c2c(c3occ(-c4ccc(O)c(O)c4)c(=O)c3c1O)C=CC(C)(C)O2,4.31 µM
16,CC12CCC3C(CCC4(O)CC(O)CCC34C=NO)C1(O)CCC2C1=COC(=O)C1 (stereo not given),0.586 µM
17,N#C[C@@H]1[C@@H](c2ccccc2-c2ccc(F)cc2)[C@H](CO)N1C(=O)NC1CCCCC1,> 22 µM (inactive)
18,CN(C)c1ccc(C(=C2C=CC(=[N+](C)C)C=C2)c2ccc(N(C)C)cc2)cc1,0.105 µM
19,CCC1=C(CC2NCCc3ccccc32)CC2c3cc(OC)c(OC)cc3CCN2C1 (stereo not given),1.75 µM
20,C=CC[n+]1c(/C=C2\C=Cc3cc(C)ccc3N2CC)ccc2ccccc21,2.7 µM
21,CC1CC(C)(O)CC(C(O)CC2CC(=O)NC(=O)C2)C1=O (stereo not given),0.0973 µM
22,Cc1ccc(OC(=O)N(C)C[C@@H]2OCc3ccccc3-c3c(n(C)c4ccccc34)C(=O)N([C@@H](C)CO)C[C@H]2C)cc1,7.62 µM

row,Structure (SMILES),AC50
1,C[C@@H]1CN([C@@H](C)CO)C(=O)c2c(c3ccccc3n2C)-c2ccccc2CO[C@H]1CN(C)C(=O)Nc1ccccc1C(F)(F)F,9.28 µM
2,NC(=NCCCCCCN=C(N)/N=C(\N)Nc1ccc(Cl)cc1)/N=C(\N)Nc1ccc(Cl)cc1,> 20 µM (inactive)
3,Cc1noc(C)c1S(=O)(=O)Nc1ccc2c(c1)C(=O)N([C@@H](C)CO)C[C@@H](C)[C@@H](CN(C)C(=O)Nc1cccc3ccccc13)OCCCC[C@H](C)O2,1.52 µM
4,C[C@H]1CN([C@@H](C)CO)C(=O)c2c(c3ccccc3n2C)-c2ccccc2CO[C@@H]1CN(C)C(=O)Nc1cccc(C(F)(F)F)c1,11.1 µM
5,COc1ccc(C(=O)CCN2CCc3cc(OC)c(OC)cc3C2)cc1,5.82 µM
6,OC(c1cc(-c2cccc(Cl)c2)nc2ccccc12)C1CCCCN1 (stereo not given),4.14 µM
7,C[C@H]1CN([C@@H](C)CO)C(=O)Cc2cc(NS(=O)(=O)c3cccs3)ccc2O[C@@H]1CN(C)Cc1ccc(Cl)c(Cl)c1,5.83 µM
8,CC(=O)OC(C)(C)/C=C/C(=O)C(C)(O)C1C(O)CC2(C)C3CC=C4C(CC(O)C(=O)C4(C)C)C3(C)C(=O)CC12C (stereo not given),0.124 µM
9,CCCCCCCCCCCCCCCC[n+]1ccccc1,0.266 µM
10,CCC(=O)NC(c1ccccc1OC)c1ccc2cccnc2c1O (stereo not given),8.63 µM
11,CC1(C)C(=O)C=C[C@@]2(C)C1C(=O)C(=O)[C@]1(C)C2CC[C@@]2(C)[C@H](c3ccoc3)C[C@H]3O[C@]321 (stereo not given in full),3.47 µM
12,CCCNC(=O)N1[C@H](C#N)[C@H](c2ccc(C3=CCCCC3)cc2)[C@@H]1CO,> 20 µM (inactive)
13,Oc1c(Cl)cc(Cl)c(Cl)c1Cc1c(O)c(Cl)cc(Cl)c1Cl,3.6 µM
14,COC(=O)C[C@](O)(CCCC(C)(C)O)C(=O)O[C@@H]1C(OC)=C[C@]23CCCN2CCc2cc4c(cc2[C@H]13)OCO4,< 0.0046 µM
15,C[C@H]1CN([C@@H](C)CO)C(=O)c2c(c3ccccc3n2C)-c2ccccc2CO[C@@H]1CN(C)Cc1cccc(C(F)(F)F)c1,2.17 µM
16,CC1=CC(C)(C)N=C(Nc2nc(C)c3cc(C)cc(C)c3n2)N1,3.85 µM
17,N#CC(C#N)=NNc1cccc(Cl)c1,6.54 µM
18,COCCn1c(C)cc(C(=O)COC(=O)c2ccc(Cl)c(S(N)(=O)=O)c2)c1C,> 20 µM (inactive)
19,O=C1CC(c2ccc3c(c2)OCO3)Sc2nc3ccccc3n21 (stereo not given),8.89 µM
20,COc1c(-c2coc3cc4c(cc3c2=O)CC(O)C(C)(C)O4)ccc2c1C=CC(C)(C)O2 (stereo not given),> 20 µM (inactive)
21,CCc1csc(N2[C@H](C#N)[C@H](c3ccc(C#Cc4ccc(F)cc4)cc3)[C@H]2CO)n1,> 20 µM (inactive)
22,CCCNC(=O)N1[C@H](C#N)[C@H](c2ccc(C#Cc3cccc(F)c3)cc2)[C@H]1CO,5.57 µM

row,Structure (SMILES),AC50
1,Cc1cc(C(=O)COC(=O)c2ccco2)c(C)n1Cc1ccco1,0.11 µM
2,CO[C@H](CN(C)Cc1cc(F)ccc1F)[C@H](C)CN(C(=O)Nc1ccc(C(F)(F)F)cc1)[C@H](C)CO,8.88 µM
3,N#C[C@@H]1[C@H](c2ccc(C#Cc3ccccc3F)cc2)[C@@H](CO)N1C(=O)C1CC1,1.59 µM
4,C[C@@H]1CN([C@H](C)CO)C(=O)c2ccccc2-c2ccccc2CO[C@@H]1CN(C)Cc1ccccc1C(F)(F)F,9.99 µM
5,C[C@@H]1CCCCO[C@H](CN(C)Cc2ccc(C(F)(F)F)cc2)[C@@H](C)CN([C@@H](C)CO)C(=O)c2cc(NC(=O)Nc3cccc4ccccc34)ccc2O1,> 20 µM (inactive)
6,Cc1noc(C)c1S(=O)(=O)N(C)C[C@H]1OCc2ccccc2-c2c(n(C)c3ccccc23)C(=O)N([C@@H](C)CO)C[C@H]1C,11.2 µM
7,C[C@H](CO)N1C[C@H](C)[C@@H](CN(C)Cc2ccc(Oc3ccccc3)cc2)Oc2c(NC(=O)CCC(F)(F)F)cccc2C1=O,8.77 µM
8,COC(=O)C1=C(C(=O)OC)C(C(=O)OC)C(C(=O)OC)C(C(=O)OC)(C(=O)OC)C(C(=O)OC)=C1C(=O)OC (stereo not given),3.44 µM
9,CCN1/C(=C/c2sc(-c3ccccc3C)c[n+]2C)Sc2ccccc21,1.91 µM
10,COc1cc(C(=O)CCN2CCC(c3ccccc3)C2)cc(OC)c1OC (stereo not given),5.51 µM
11,COc1cccc(S(=O)(=O)N(C)C[C@H]2OCc3ccccc3-c3c(n(C)c4ccccc34)C(=O)N([C@H](C)CO)C[C@@H]2C)c1,> 7 µM (inactive)
12,COc1cccc(C#Cc2ccc([C@H]3[C@@H](C#N)N(C(=O)c4ccccn4)[C@@H]3CO)cc2)c1,5.81 µM
13,CNc1c2cccc(C)c2nc2c(C(=O)NCCN(C)C)cccc12,0.266 µM
14,CC=Cc1cc2c(c(=O)o1)C(=O)C(O)C(C)O2 (stereo not given),> 20 µM (inactive)
15,O=C(C[C@@H]1CC[C@@H]2[C@H](COC[C@H](O)CN2Cc2cc(F)ccc2F)O1)NCc1ccc(Oc2ccccc2)cc1,6.77 µM
16,CCN(CC)CCCNc1nc2ccccc2c2[nH]c3ccc(OC)cc3c12,1.1 µM
17,COCC(C)n1c(C)cc(C(=O)COC(=O)c2cccn2C)c1C (stereo not given),3.06 µM
18,Cc1ccnc(NC(=O)c2ccc(OCC3CCCO3)cc2)c1 (stereo not given),5.23 µM
19,N#C[C@@H]1[C@H](c2ccc(C#CC3CCCCC3)cc2)[C@@H](CO)N1C(=O)Nc1ccc(F)cc1,10.4 µM
